According to patent US8349870B2 (priority 2008, dated 2013):
Like-named read-outs stand apart in the source and are kept apart here.

What was measured:
Format in all cases: in vivo
[1] = tested on: Plasmopara viticola; test: Test A: grape downy mildew, spray after inoculation, visual disease rating (% disease control); details: 100 = 100% disease control, 0 = no control
Description: General protocol for preparing test suspensions for Test A-C: The test compounds were first dissolved in acetone in an amount equal to 3% of the final volume and then suspended at the desired concentration (in ppm) in acetone and purified water (50/50 mix by volume) containing 250 ppm of the surfactant Trem® 014 (polyhydric alcohol esters). The resulting test suspensions were then used in Tests A-C. Spraying a 200 ppm test suspension to the point of run-off on the test plants was equivalent to a rate of 500 g/ha.
Grape seedlings were inoculated with a spore suspension of Plasmopara viticola (the causal agent of grape downy mildew) and incubated in a saturated atmosphere at 20° C. for 24 h. After a short drying period, the test suspension was sprayed to the point of run-off on the grape seedlings, which were then moved to a growth chamber at 20° C. for 5 days, after which time the grape seedling were placed back into a saturated atmosphere at 20° C. for 24 h. Upon removal, visual disease ratings were made.
Results for Tests A-C are given in Table A. In the table, a rating of 100 indicates 100% disease control and a rating of 0 indicates no disease control (relative to the controls). A dash (-) indicates no test results, “*” indicates compound was tested at 40 ppm and “**” indicates compound was tested at 10 ppm.

[2] = tested on: Phytophthora infestans; details: tomato late blight, sprayed the day before inoculation
[3] = tested on: Phytophthora infestans; details: tomato late blight, sprayed 17 h after inoculation
[4] = Cmpd No. unmarked, rate not stated in table (b1197 mentions a 200 ppm test suspension)

4-[4-(4,5-dihydro-5-phenyl-3-isoxazoly)-2-thiazolyl]-N-pentyl-1-piperidinecarboxamide [Example 4]
Test A rating (% disease control) ([1]; "*" compound tested at 40 ppm): 86%
Test B rating (% disease control) ([2]; "*" compound tested at 40 ppm): 100%
Test C rating (% disease control) ([3]; "*" compound tested at 40 ppm): 76%

4-[4-(4,5-dihydro-5-phenyl-3-isoxazolyl)-2-thiazolyl]-N-2-propen-1-yl]-1-piperidinecarbothioamide [Example 5]
Test A rating (% disease control) ([1]; "*" compound tested at 40 ppm): 83%
Test B rating (% disease control) ([2]; "*" compound tested at 40 ppm): 99%
Test C rating (% disease control) ([3]; "*" compound tested at 40 ppm): 73%

5-chloro-1-[4-[4-[4,5-dihydro-5-(2-fluorophenyl)-3-isoxazolyl]-2-thiazolyl]-1-piperidinyl-1-pentanone [Example 7]
Test A rating (% disease control) [1, 4]: 98%
Test B rating (% disease control) [2, 4]: 100%
Test C rating (% disease control) [3, 4]: 71%

O=C(C(O)Cc1ccccc1)N1CCC(c2nc(C3=NOC(c4c(F)cccc4F)C3)cs2)CC1 (mixture of isomers) [compound 50]
Test A rating (% disease control) ([1]; "*" compound tested at 40 ppm): 0%
Test B rating (% disease control) ([2]; "*" compound tested at 40 ppm): 87%
Test C rating (% disease control) ([3]; "*" compound tested at 40 ppm): 0%

CC(C)C(O)C(=O)N1CCC(c2nc(C3=NOC(c4c(F)cccc4F)C3)cs2)CC1 (mixture of isomers) [compound 54]
Test B rating (% disease control) ([2]; "*" compound tested at 40 ppm): 100%
Test C rating (% disease control) ([3]; "*" compound tested at 40 ppm): 99%

CC(C)C(O)C(=O)N1CCC(c2nc(C3=NOC(c4c(F)cccc4F)C3)cs2)CC1 (mixture of isomers) [compound 55]
Test A rating (% disease control) ([1]; "**" compound tested at 10 ppm): 10%
Test B rating (% disease control) ([2]; "**" compound tested at 10 ppm): 100%
Test C rating (% disease control) ([3]; "**" compound tested at 10 ppm): 99%

CC(C)CC(O)C(=O)N1CCC(c2nc(C3=NOC(c4c(F)cccc4F)C3)cs2)CC1 (mixture of isomers) [compound 56]
Test A rating (% disease control) ([1]; "*" compound tested at 40 ppm): 98%
Test B rating (% disease control) ([2]; "*" compound tested at 40 ppm): 84%
Test C rating (% disease control) ([3]; "*" compound tested at 40 ppm): 50%

CSC(=Nc1cc(C)ccc1C)N1CCC(c2nc(C3=NOC(c4ccccc4)C3)cs2)CC1 (stereo not drawn) [Example 1, methyl 4-[4-(4,5-dihydro-5-phenyl-3-isoxazolyl)-2-thiazolyl]-N-(2,5-dimethylphenyl)-1-piperidinecarboximidothioate]
Test A rating (% disease control) ([1]; "*" compound tested at 40 ppm): 96%
Test B rating (% disease control) ([2]; "*" compound tested at 40 ppm): 97%
Test C rating (% disease control) ([3]; "*" compound tested at 40 ppm): 53%

Cc1ccc(C)c(N=CN2CCC(c3nc(C4=NOC(c5ccccc5)C4)cs3)CC2)c1 (stereo not drawn) [Example 2, N-[[4-[4-(4,5-dihydro-5-phenyl-3-isoxazolyl)-2-thiazolyl]-1-piperidinyl]methylene]-2,5-dimethylbenzenamine]
Test A rating (% disease control) [1, 4]: 17%
Test B rating (% disease control) [2, 4]: 88%
Test C rating (% disease control) [3, 4]: 0%

CC(CC(=O)N1CCC(c2nc(C3=NOC(c4ccccc4F)C3)cs2)CC1)C(F)(F)F (stereo not drawn) [Example 6, 1-[4-[4-[4,5-dihydro-5-(2-fluorophenyl)-3-isoxazolyl]-2-thiazolyl]-1-piperidinyl]-4,4,4-trifluoro-3-methyl-1-butanone]
Test A rating (% disease control) [1, 4]: 0%
Test B rating (% disease control) [2, 4]: 33%
Test C rating (% disease control) [3, 4]: 0%

C#CCCC(=O)N1CCC(c2nc(C3=NOC(c4ccccc4F)C3)cs2)CC1 (stereo not drawn) [Example 8, 1-[4-[4-[4,5-dihydro-5-(2-fluorophenyl)-3-isoxazolyl]-2-thiazolyl]-1-piperidinyl]-4-pentyn-1-one]
Test A rating (% disease control) [1, 4]: 46%
Test B rating (% disease control) [2, 4]: 40%
Test C rating (% disease control) [3, 4]: 0%

CN(C)C(=O)N1CCC(c2nc(C3=NOC(c4ccccc4)C3)cs2)CC1 (stereo not drawn) [compound 11]
Test A rating (% disease control) [1, 4]: 0%
Test B rating (% disease control) [2, 4]: 0%
Test C rating (% disease control) [3, 4]: 0%

CCN(CC)C(=O)N1CCC(c2nc(C3=NOC(c4ccccc4)C3)cs2)CC1 (stereo not drawn) [compound 12]
Test A rating (% disease control) [1, 4]: 8%
Test B rating (% disease control) [2, 4]: 40%
Test C rating (% disease control) [3, 4]: 0%

CCNC(=O)N1CCC(c2nc(C3=NOC(c4ccccc4)C3)cs2)CC1 (stereo not drawn) [compound 13]
Test A rating (% disease control) [1, 4]: 57%
Test B rating (% disease control) [2, 4]: 99%
Test C rating (% disease control) [3, 4]: 0%

CCCNC(=O)N1CCC(c2nc(C3=NOC(c4ccccc4)C3)cs2)CC1 (stereo not drawn) [compound 14]
Test A rating (% disease control) [1, 4]: 88%
Test B rating (% disease control) [2, 4]: 100%
Test C rating (% disease control) [3, 4]: 99%

CC(C)NC(=O)N1CCC(c2nc(C3=NOC(c4ccccc4)C3)cs2)CC1 (stereo not drawn) [compound 15]
Test A rating (% disease control) [1, 4]: 86%
Test B rating (% disease control) [2, 4]: 100%
Test C rating (% disease control) [3, 4]: 91%

CC(C)(C)NC(=O)N1CCC(c2nc(C3=NOC(c4ccccc4)C3)cs2)CC1 (stereo not drawn) [compound 16]
Test A rating (% disease control) [1, 4]: 86%
Test B rating (% disease control) [2, 4]: 100%
Test C rating (% disease control) [3, 4]: 95%

CCC(C)NC(=O)N1CCC(c2nc(C3=NOC(c4ccccc4)C3)cs2)CC1 (stereo not drawn) [compound 17]
Test A rating (% disease control) ([1]; "*" compound tested at 40 ppm): 86%
Test B rating (% disease control) ([2]; "*" compound tested at 40 ppm): 100%
Test C rating (% disease control) ([3]; "*" compound tested at 40 ppm): 95%

CCOC(=O)CNC(=O)N1CCC(c2nc(C3=NOC(c4ccccc4)C3)cs2)CC1 (stereo not drawn) [compound 18]
Test A rating (% disease control) ([1]; "*" compound tested at 40 ppm): 39%
Test B rating (% disease control) ([2]; "*" compound tested at 40 ppm): 63%
Test C rating (% disease control) ([3]; "*" compound tested at 40 ppm): 26%

O=C(NC1CCCC1)N1CCC(c2nc(C3=NOC(c4ccccc4)C3)cs2)CC1 (stereo not drawn) [compound 19]
Test A rating (% disease control) ([1]; "*" compound tested at 40 ppm): 67%
Test B rating (% disease control) ([2]; "*" compound tested at 40 ppm): 100%
Test C rating (% disease control) ([3]; "*" compound tested at 40 ppm): 63%

O=C(NCC1CCCCC1)N1CCC(c2nc(C3=NOC(c4ccccc4)C3)cs2)CC1 (stereo not drawn) [compound 20]
Test A rating (% disease control) ([1]; "*" compound tested at 40 ppm): 95%
Test B rating (% disease control) ([2]; "*" compound tested at 40 ppm): 100%
Test C rating (% disease control) ([3]; "*" compound tested at 40 ppm): 93%

Cc1ccc(C)c(N=CN2CCC(c3nc(C4=NOC(c5ccccc5)C4)cs3)CC2)c1.Cl (stereo not drawn) [compound 21]
Test A rating (% disease control) [1, 4]: 0%
Test B rating (% disease control) [2, 4]: 95%
Test C rating (% disease control) [3, 4]: 0%

Cc1ccc(C)c(N=C(N)N2CCC(c3nc(C4=NOC(c5ccccc5)C4)cs3)CC2)c1 (stereo not drawn) [compound 23]
Test A rating (% disease control) ([1]; "**" compound tested at 10 ppm): 79%
Test B rating (% disease control) ([2]; "**" compound tested at 10 ppm): 100%
Test C rating (% disease control) ([3]; "**" compound tested at 10 ppm): 33%

Cc1ccc(C)c(N=C(N(C)C)N2CCC(c3nc(C4=NOC(c5ccccc5)C4)cs3)CC2)c1 (stereo not drawn) [compound 24]
Test A rating (% disease control) ([1]; "*" compound tested at 40 ppm): 79%
Test B rating (% disease control) ([2]; "*" compound tested at 40 ppm): 97%
Test C rating (% disease control) ([3]; "*" compound tested at 40 ppm): 39%

Cc1ccc(C)c(N=C(NO)N2CCC(c3nc(C4=NOC(c5c(F)cccc5F)C4)cs3)CC2)c1 (stereo not drawn) [compound 25]
Test A rating (% disease control) ([1]; "*" compound tested at 40 ppm): 100%
Test B rating (% disease control) ([2]; "*" compound tested at 40 ppm): 100%
Test C rating (% disease control) ([3]; "*" compound tested at 40 ppm): 99%

CSC(=Nc1cc(C)ccc1C)N1CCC(c2nc(C3=NOC(c4c(F)cccc4F)C3)cs2)CC1.I (stereo not drawn) [compound 26]
Test A rating (% disease control) ([1]; "*" compound tested at 40 ppm): 99%
Test B rating (% disease control) ([2]; "*" compound tested at 40 ppm): 100%
Test C rating (% disease control) ([3]; "*" compound tested at 40 ppm): 93%

CC(=O)NC(=Nc1cc(C)ccc1C)N1CCC(c2nc(C3=NOC(c4ccccc4)C3)cs2)CC1 (stereo not drawn) [compound 27]
Test A rating (% disease control) ([1]; "*" compound tested at 40 ppm): 4%
Test B rating (% disease control) ([2]; "*" compound tested at 40 ppm): 99%
Test C rating (% disease control) ([3]; "*" compound tested at 40 ppm): 58%

CNC(=Nc1cc(C)ccc1C)N1CCC(c2nc(C3=NOC(c4ccccc4)C3)cs2)CC1 (stereo not drawn) [compound 28]
Test A rating (% disease control) ([1]; "*" compound tested at 40 ppm): 43%
Test B rating (% disease control) ([2]; "*" compound tested at 40 ppm): 95%
Test C rating (% disease control) ([3]; "*" compound tested at 40 ppm): 0%

CCOC(=Nc1cc(C)ccc1C)N1CCC(c2nc(C3=NOC(c4ccccc4)C3)cs2)CC1 (stereo not drawn) [compound 29]
Test A rating (% disease control) ([1]; "*" compound tested at 40 ppm): 92%
Test B rating (% disease control) ([2]; "*" compound tested at 40 ppm): 99%
Test C rating (% disease control) ([3]; "*" compound tested at 40 ppm): 80%

Cc1ccc(C)c(N=C(N2CCOCC2)N2CCC(c3nc(C4=NOC(c5ccccc5)C4)cs3)CC2)c1 (stereo not drawn) [compound 30]
Test A rating (% disease control) ([1]; "*" compound tested at 40 ppm): 58%
Test B rating (% disease control) ([2]; "*" compound tested at 40 ppm): 64%
Test C rating (% disease control) ([3]; "*" compound tested at 40 ppm): 17%

Cc1ccc(C)c(N=C(N)N2CCC(c3nc(C4=NOC(c5c(F)cccc5F)C4)cs3)CC2)c1 (stereo not drawn) [compound 31]
Test A rating (% disease control) ([1]; "*" compound tested at 40 ppm): 99%
Test B rating (% disease control) ([2]; "*" compound tested at 40 ppm): 100%
Test C rating (% disease control) ([3]; "*" compound tested at 40 ppm): 97%

O=C(C(O)C(F)(F)F)N1CCC(c2nc(C3=NOC(c4c(F)cccc4F)C3)cs2)CC1 (stereo not drawn) [compound 53]
Test B rating (% disease control) ([2]; "*" compound tested at 40 ppm): 100%
Test C rating (% disease control) ([3]; "*" compound tested at 40 ppm): 95%

CC(C)CC(O)C(=O)N1CCC(c2nc(C3=NOC(c4c(F)cccc4F)C3)cs2)CC1 (stereo not drawn) [compound 57]
Test B rating (% disease control) ([2]; "*" compound tested at 40 ppm): 100%
Test C rating (% disease control) ([3]; "*" compound tested at 40 ppm): 97%

CCCCC(O)C(=O)N1CCC(c2nc(C3=NOC(c4c(F)cccc4F)C3)cs2)CC1 (stereo not drawn) [compound 58]
Test B rating (% disease control) ([2]; "*" compound tested at 40 ppm): 100%
Test C rating (% disease control) ([3]; "*" compound tested at 40 ppm): 99%

CCCCCCC(O)C(=O)N1CCC(c2nc(C3=NOC(c4c(F)cccc4F)C3)cs2)CC1 (stereo not drawn) [compound 61]
Test B rating (% disease control) ([2]; "*" compound tested at 40 ppm): 100%
Test C rating (% disease control) ([3]; "*" compound tested at 40 ppm): 47%

CCC(=O)C(=O)N1CCC(c2nc(C3=NOC(c4c(F)cccc4F)C3)cs2)CC1 (stereo not drawn) [compound 66]
Test B rating (% disease control) ([2]; "*" compound tested at 40 ppm): 100%
Test C rating (% disease control) ([3]; "*" compound tested at 40 ppm): 99%
